Measurements taken from patent US11053218B2, “3-(1-oxoisoindolin-2-yl)piperidine-2,6-dione derivatives and uses thereof” (Novartis AG, priority 2017, dated 2021).
“Also recorded” adds a separate entry of the source. Where two headings read alike, the source gives them in different places.

Legend:
Format in all cases: cell-based
[1] = system: primary human regulatory T cells; assay: Expansion of purified primary human Treg cells in the presence of compound; settings: FIG. 1
Protocol: (§1) Human buffy coats were obtained from BioreclamationIVT, in the USA. CD4+ T cells were isolated from said buffy coats using the RosetteSep Human CD4+ T cell enrichment Cocktail (Stemcell technologies, USA) and gradient centrifugation over Ficoll Paque Plus (GE HealthCare LifeSciences, USA) as per manufacturer's recommendations. Cells were resuspended in RPMI medium supplemented with 1% penicillin-Streptomycin solution, 10% Fetal Bovine Serum, HEPES (10 mM), MEM NEAA ([…]), sodium pyruvate (1 mM) (all supplements from Thermo Fisher Scientific, USA), thereafter referred to as complete RPMI (cRPMI), and rested overnight at 37° C., 5% CO2 in the presence of 2 U/mL rhIL-2 (Proleukin, Novartis). Cells were collected and resuspended in autoMACS Running Buffer supplemented with BSA (Miltenyi Biotec, USA) and labelled using CD4-FITC antibody (clone RPA-T4), CD25-APC antibody (clone M-A251) (Biolegend) and CD25 Microbeads (Miltenyi Biotec, USA). CD25-enriched cells were then isolated using the autoMACS Pro Separator. A highly purified population of Treg cells was then obtained by further sorting CD4+CD25Hi cells using a Sony SH800 cell sorter. The resulting Treg cell population was routinely above 90% pure according to FOXP3 expression. […]
Cell were collected and counted and the fold expansion was calculated as (number of cells recovered)/(number of cells plated). […]

[2] = biological target: IKZF1 (Homo sapiens, UniProt Q13422+Q96SW2); assay: Prolabel quantification of IKZF1 protein levels in 293GT cells; settings: Prolabel assay, read-out: IKZF1 EC50
[3] = biological target: GSPT1 (Homo sapiens, UniProt P15170+Q96SW2); assay: Prolabel quantification of GSPT1 protein levels in 293GT cells; settings: Prolabel assay, read-out: GSPT1 EC50
[4] = system: primary human regulatory T cells
[5] = biological target: IKZF2 (Homo sapiens, UniProt Q96SW2+Q9UKS7); assay: Prolabel quantification of IKZF2 protein levels in 293GT cells
[6] = system: primary human regulatory T cells; assay: In vitro suppression of the proliferation of CD4+ T cells by expanded Treg cells; settings: five independent donors, vs DMSO, FIG. 3
Protocol: as §1, with “Separator.” for “Separator. A highly purified population of Treg cells was then obtained by further sorting CD4+CD25Hi cells using a Sony SH800 cell sorter. The resulting Treg cell population was routinely above 90% pure according to FOXP3 expression.”
Primary human PBMCs were obtained from freshly prepared buffy coats (BioReclamationIVT) using gradient centrifugation over Ficoll Paque Plus as per manufacturer's recommendations. […] Proliferation was assessed in each population as the proportion of cells having diluted CFSE. Suppression was assessed for each condition in comparison to the responders plated alone.

[7] = Prolabel assay, 293GT cells; read-out: IKZF2 EC50
[8] = 10 μM, 24 h, 293GT cells; read-out: IKZF2 % protein reduction at 10 μM, 24 h
[9] = 24 h, 10 μM, 24 h, 293GT cells; read-out: IKZF2 % protein reduction at 10 μM, 24 h

Sequence of GSPT1 (P15170 whole entry): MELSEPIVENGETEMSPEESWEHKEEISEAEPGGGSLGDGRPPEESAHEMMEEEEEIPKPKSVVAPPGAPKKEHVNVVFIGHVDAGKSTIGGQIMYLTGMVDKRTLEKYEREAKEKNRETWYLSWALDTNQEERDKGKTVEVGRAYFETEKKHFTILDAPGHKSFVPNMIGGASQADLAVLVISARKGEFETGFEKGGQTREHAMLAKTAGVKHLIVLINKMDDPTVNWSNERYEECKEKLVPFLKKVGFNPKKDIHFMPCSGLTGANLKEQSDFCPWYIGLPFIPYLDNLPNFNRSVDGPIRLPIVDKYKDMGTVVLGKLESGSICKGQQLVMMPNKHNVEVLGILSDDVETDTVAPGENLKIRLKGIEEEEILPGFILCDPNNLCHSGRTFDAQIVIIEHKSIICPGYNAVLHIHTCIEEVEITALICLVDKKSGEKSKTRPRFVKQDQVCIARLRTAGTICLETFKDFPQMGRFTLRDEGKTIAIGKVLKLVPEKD
Sequence of GSPT1 (Q96SW2 whole entry): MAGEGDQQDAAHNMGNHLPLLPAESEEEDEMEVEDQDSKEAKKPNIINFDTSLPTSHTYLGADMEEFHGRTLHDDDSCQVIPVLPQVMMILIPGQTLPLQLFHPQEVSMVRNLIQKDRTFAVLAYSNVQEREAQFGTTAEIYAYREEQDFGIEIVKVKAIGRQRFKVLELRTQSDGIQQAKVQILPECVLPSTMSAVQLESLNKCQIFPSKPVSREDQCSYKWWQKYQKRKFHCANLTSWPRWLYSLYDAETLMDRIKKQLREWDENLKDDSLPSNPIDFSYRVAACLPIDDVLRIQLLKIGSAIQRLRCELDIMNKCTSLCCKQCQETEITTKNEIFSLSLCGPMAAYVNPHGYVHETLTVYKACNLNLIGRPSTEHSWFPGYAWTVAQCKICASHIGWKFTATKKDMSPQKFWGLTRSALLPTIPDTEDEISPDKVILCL
Sequence of GSPT1 (Q16531 whole entry partner): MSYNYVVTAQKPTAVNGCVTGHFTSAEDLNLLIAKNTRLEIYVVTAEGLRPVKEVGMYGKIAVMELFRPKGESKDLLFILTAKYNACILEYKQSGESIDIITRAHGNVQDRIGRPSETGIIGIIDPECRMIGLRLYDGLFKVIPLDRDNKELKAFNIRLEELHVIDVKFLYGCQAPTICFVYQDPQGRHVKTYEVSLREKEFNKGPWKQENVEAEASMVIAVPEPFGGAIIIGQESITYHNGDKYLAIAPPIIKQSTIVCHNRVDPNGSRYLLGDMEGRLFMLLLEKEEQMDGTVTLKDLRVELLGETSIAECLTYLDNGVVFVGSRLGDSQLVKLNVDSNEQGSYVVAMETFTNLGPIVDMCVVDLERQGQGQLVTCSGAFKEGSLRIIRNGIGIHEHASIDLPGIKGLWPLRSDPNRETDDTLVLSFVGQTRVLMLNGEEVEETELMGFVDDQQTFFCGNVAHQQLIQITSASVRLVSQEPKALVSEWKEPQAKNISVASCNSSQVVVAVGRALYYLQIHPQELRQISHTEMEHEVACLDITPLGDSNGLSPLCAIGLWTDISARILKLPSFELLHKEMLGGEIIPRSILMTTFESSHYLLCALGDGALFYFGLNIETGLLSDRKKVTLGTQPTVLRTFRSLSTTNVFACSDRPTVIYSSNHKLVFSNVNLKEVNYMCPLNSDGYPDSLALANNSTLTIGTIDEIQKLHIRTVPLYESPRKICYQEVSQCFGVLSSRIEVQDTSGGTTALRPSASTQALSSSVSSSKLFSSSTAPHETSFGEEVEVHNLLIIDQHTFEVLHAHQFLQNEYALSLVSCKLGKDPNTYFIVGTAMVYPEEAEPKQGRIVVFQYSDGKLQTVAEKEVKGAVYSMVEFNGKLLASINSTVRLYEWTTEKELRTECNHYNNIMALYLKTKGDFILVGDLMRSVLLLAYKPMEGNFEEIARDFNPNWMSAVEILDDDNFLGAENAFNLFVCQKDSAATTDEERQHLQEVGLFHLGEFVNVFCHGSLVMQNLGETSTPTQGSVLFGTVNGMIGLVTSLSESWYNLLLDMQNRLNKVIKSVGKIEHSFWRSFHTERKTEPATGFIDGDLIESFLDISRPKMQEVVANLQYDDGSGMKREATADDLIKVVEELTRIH
Sequence of IKZF1 (Q13422 whole entry): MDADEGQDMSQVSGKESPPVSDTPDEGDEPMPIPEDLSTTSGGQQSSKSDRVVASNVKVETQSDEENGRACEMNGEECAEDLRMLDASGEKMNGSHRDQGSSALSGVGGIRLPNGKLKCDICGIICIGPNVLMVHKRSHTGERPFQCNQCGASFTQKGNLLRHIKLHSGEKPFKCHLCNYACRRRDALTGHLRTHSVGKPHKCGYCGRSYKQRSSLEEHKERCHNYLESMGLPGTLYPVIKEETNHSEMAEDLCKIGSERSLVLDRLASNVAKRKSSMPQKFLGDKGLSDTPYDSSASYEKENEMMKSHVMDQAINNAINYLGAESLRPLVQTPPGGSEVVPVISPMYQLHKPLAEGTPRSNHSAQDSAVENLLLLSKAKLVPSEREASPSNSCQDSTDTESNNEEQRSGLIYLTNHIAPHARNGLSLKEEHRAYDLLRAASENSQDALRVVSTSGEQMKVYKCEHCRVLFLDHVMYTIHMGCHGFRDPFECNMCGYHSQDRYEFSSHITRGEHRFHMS
Sequence of IKZF1 (Q96SW2 whole entry): as the sequence (Q96SW2 whole entry) above
Sequence of IKZF1 (Q16531 whole entry partner): as the sequence (Q16531 whole entry partner) above
Sequence of IKZF2 (Q9UKS7 whole entry): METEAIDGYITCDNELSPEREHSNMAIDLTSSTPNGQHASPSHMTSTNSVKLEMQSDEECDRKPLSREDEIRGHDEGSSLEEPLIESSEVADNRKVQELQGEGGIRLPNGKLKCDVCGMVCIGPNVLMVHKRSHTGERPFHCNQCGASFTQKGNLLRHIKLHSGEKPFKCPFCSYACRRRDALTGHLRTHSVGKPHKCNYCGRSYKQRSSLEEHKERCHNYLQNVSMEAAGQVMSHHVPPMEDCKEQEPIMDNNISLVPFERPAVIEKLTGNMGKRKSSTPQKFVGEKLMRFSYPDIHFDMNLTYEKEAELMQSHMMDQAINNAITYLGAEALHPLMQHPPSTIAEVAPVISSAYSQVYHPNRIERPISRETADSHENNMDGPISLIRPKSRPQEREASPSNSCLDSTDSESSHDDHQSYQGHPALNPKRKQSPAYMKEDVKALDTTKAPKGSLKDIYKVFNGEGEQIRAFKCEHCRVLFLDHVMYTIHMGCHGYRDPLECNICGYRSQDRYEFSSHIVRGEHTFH
Sequence of IKZF2 (Q96SW2 whole entry): as the sequence (Q96SW2 whole entry) above
Sequence of IKZF2 (Q16531 whole entry partner): as the sequence (Q16531 whole entry partner) above

SMILES	DC50 [2] [µM]	DC50 [3] [µM]	DC50 [5, 7] [µM]	inhibition at 10 µM [5, 9] [%]	Treg cells expand less in the presence of compound ([1]; expanded in vitro 12 days, vs DMSO, compound 10 μM) [%]	Expansion of purified Treg cells as compared to the control ([1]; purified primary human Treg cells, DMSO control)	Increase of the proportion of cells producing IL-2 (median) [4] [fold]	IKZF2 protein levels as compared to the control (DMSO) [5]	inhibition at 10 µM ([5]; 24 h, read-out: IKZF2 % protein reduction at 10 μM, 24 h) [%]	In vitro suppression of the proliferation of CD4+ T cells by expanded Treg cells [6]	inhibition at 10 µM [5, 8] [%]
O=C1CCC(N2Cc3cc(C4CCN(Cc5ccccc5)CC4)ccc3C2=O)C(=O)N1 (stereo not shown) [Compound I-57, 3-(5-(1-benzylpiperidin-4-yl)-1-oxoisoindolin-2-yl)piperidine-2,6-dione]	> 50	> 50	0.009		30	impaired	2.16	decreased	70	impaired; also recorded: less able to repress	
COc1ccc(CN2CCC(c3ccc4c(c3)CN(C3CCC(=O)NC3=O)C4=O)CC2)cc1 (stereo not shown) [Compound I-39, 3-(5-(1-(4-methoxybenzyl)piperidin-4-yl)-1-oxoisoindolin-2-yl)piperidine-2,6-dione]	> 50	> 50									45
O=C1CCC(N2Cc3cc(C4CCN(c5ccccc5)CC4)ccc3C2=O)C(=O)N1 (stereo not shown) [Compound I-170, 3-(1-oxo-5-(1-phenylpiperidin-4-yl)isoindolin-2-yl)piperidine-2,6-dione]	> 50	> 50									5
Cc1ccccc1CN1CCC(c2ccc3c(c2)CN(C2CCC(=O)NC2=O)C3=O)CC1 (stereo not shown) [Compound I-157, 3-(5-(1-(2-methylbenzyl)piperidin-4-yl)-1-oxoisoindolin-2-yl)piperidine-2,6-dione]	> 50	> 50	0.056	55							
CN1CCN(Cc2cc(CN3CCC(c4ccc5c(c4)CN(C4CCC(=O)NC4=O)C5=O)CC3)ccc2O)CC1 (stereo not shown) [Compound I-205, 3-(5-(1-(4-hydroxy-3-((4-methylpiperazin-1-yl)methyl)benzyl)piperidin-4-yl)-1-oxoisoindolin-2-yl)piperidine-2,6-dione]	> 30	> 30	0.05	70							
O=C1CCC(N2Cc3cc(C4CCN(Cc5cc6n(n5)CCCC6)CC4)ccc3C2=O)C(=O)N1 (stereo not shown) [Compound I-135, 3-(1-oxo-5-(1-((4,5,6,7-tetrahydropyrazolo[1,5-a]pyridin-2-yl)methyl)piperidin-4-yl)isoindolin-2-yl)piperidine-2,6-dione]	> 30	> 30	0.057	60							

Continued, in another order:

DC50 [2] [µM]	DC50 [3] [µM]	DC50 [5, 7] [µM]	inhibition at 10 µM [5, 9] [%]	SMILES	Treg cells expand less in the presence of compound ([1]; expanded in vitro 12 days, vs DMSO, compound 10 μM) [%]	Expansion of purified Treg cells as compared to the control ([1]; purified primary human Treg cells, DMSO control)	Increase of the proportion of cells producing IL-2 (median) [4] [fold]	IKZF2 protein levels as compared to the control (DMSO) [5]	inhibition at 10 µM ([5]; 24 h, read-out: IKZF2 % protein reduction at 10 μM, 24 h) [%]	In vitro suppression of the proliferation of CD4+ T cells by expanded Treg cells [6]	inhibition at 10 µM [5, 8] [%]
> 30	> 30	0.045	70	O=C1CCC(N2Cc3cc(C4CCN(Cc5nc6ccsc6c(=O)[nH]5)CC4)ccc3C2=O)C(=O)N1 (stereo not shown) [Compound I-213, 3-(1-oxo-5-(1-((4-oxo-3,4-dihydrothieno[3,2-d]pyrimidin-2-yl)methyl)piperidin-4-yl)isoindolin-2-yl)piperidine-2,6-dione]							
> 30	> 30	0.018	70	O=C1CCC(N2Cc3cc(C4CCN(Cc5ccc6ccc(F)cc6n5)CC4)ccc3C2=O)C(=O)N1 (stereo not shown) [Compound I-232, 3-(5-(1-((7-fluoroquinolin-2-yl)methyl)piperidin-4-yl)-1-oxoisoindolin-2-yl)piperidine-2,6-dione]							
> 50	> 50	0.018	50	O=C1CCC(N2Cc3cc(C4CCN(Cc5cccc6c5CCCC6)CC4)ccc3C2=O)C(=O)N1 (stereo not shown) [Compound I-164, 3-(1-oxo-5-(1-((5,6,7,8-tetrahydronaphthalen-1-yl)methyl)piperidin-4-yl)isoindolin-2-yl)piperidine-2,6-dione]							
> 30	> 30	0.007	80	O=C1CCC(N2Cc3cc(C4CCN(Cc5ccc(OC(F)F)cc5)CC4)ccc3C2=O)C(=O)N1 (stereo not shown) [Compound I-77, 3-(5-(1-(4-(difluoromethoxy)benzyl)piperidin-4-yl)-1-oxoisoindolin-2-yl)piperidine-2,6-dione]							
> 30	> 30	0.025	75	O=C1CCC(N2Cc3cc(C4CCN(Cc5ccc(F)c(F)c5)CC4)ccc3C2=O)C(=O)N1 (stereo not shown) [Compound I-64, 3-(5-(1-(3,4-difluorobenzyl)piperidin-4-yl)-1-oxoisoindolin-2-yl)piperidine-2,6-dione]							
> 50	> 50	0.016	55	Cc1ccc(CN2CCC(c3ccc4c(c3)CN(C3CCC(=O)NC3=O)C4=O)CC2)cc1 (stereo not shown) [Compound I-158, 3-(5-(1-(4-methylbenzyl)piperidin-4-yl)-1-oxoisoindolin-2-yl)piperidine-2,6-dione]							
> 50	> 50	0.013	65	O=C1CCC(N2Cc3cc(C4CCN(CC5CCCCC5)CC4)ccc3C2=O)C(=O)N1 (stereo not shown) [Compound I-11, 3-(5-(1-(cyclohexylmethyl)piperidin-4-yl)-1-oxoisoindolin-2-yl)piperidine-2,6-dione]							
